Patent publication US11319303B2 (WIGEN BIOMEDICINE TECHNOLOGY (SHANGHAI) CO., LTD., priority 2017, dated 2022)
Structures can show the parent of a compound that is named as a salt.

Target: LC3B (Homo sapiens, UniProt Q9GZQ8)
Assay: Fluorescence Polarization (FP) Assay: displacement of FITC-labeled peptide from GST-LC3B
Type: binding
Conditions: Fluorescence Polarization assay; GST-LC3B 180 nM, FITC-labeled peptide 18 nM, 25° C.; read-out: IC50
Description: The compounds of the present invention for regulating the autophagy-related protein LC3B were tested by Fluorescence Polarization (FP) Assay.
Fluorescence Polarization (FP) Assay Test

Compound | IC50 [µM]
CN(C)CCNC=C1C(=O)CC(c2cc(C(F)(F)F)ccc2Br)CC1=O (centres unmarked) [Compound 362, 5-(2-bromo-5-(trifluoromethyl)phenyl)-2-(((2-(dimethylamino)ethyl)amino)methylene) cyclohexane-1,3-dione] | < 3
O=C1CC(c2ccc3cc[nH]c3c2)CC(=O)C1=CNCCN1CCN(CCO)CC1 (centres unmarked) [Compound 315, 2-(((2-(4-(2-hydroxyethyl)piperazin-1-yl)ethyl)amino)methylene)-5-(1H-indol-6-yl)cyclohexane-1,3-dione] | < 3
CC(NC=C1C(=O)CC(c2ccccc2)CC1=O)c1ccccn1 (centres unmarked) [Compound 160, 5-phenyl-2-(((1-(pyridin-2-yl)ethyl)amino)methylene) cyclohexane-1,3-dione] | 15 to 100
O=C1CC(c2cc3[nH]ccc3cc2Br)CC(=O)C1=CNCCN1CCN(CCO)CC1 (centres unmarked) [Compound 392, 5-(5-bromo-1H -indol-6-yl)-2-(((2-(4-(2-ethoxyl)piperazin-1-yl)ethyl)amino)methylene) cyclohexane-1,3-dione] | < 3
O=C1CC(c2ccccc2)CC(=O)C1=CNc1ncc([N+](=O)[O-])s1 (centres unmarked) [Compound 150, 2-(((5-nitrothiazol-2-yl)amino)methylene)-5-phenylcyclohexane-1,3-dione] | < 3
O=C1CC(c2ccccc2)C(F)C(=O)/C1=C/O (centres unmarked) [Compound 451, 2-(hydroxymethylene)-4-fluoro-5-(phenyl)cyclohexane-1,3-dione] | 3 to 15
CN(C)C=C1C(=O)CC(c2ccc3c(c2)CCO3)CC1=O (centres unmarked) [Compound 251, 5-(2,3-dihydrobenzofuran-5-yl)-2-((dimethylamino)methylene) cyclohexane-1,3-dione] | < 3
CCN1CCC[C@H]1CNC=C1C(=O)CC(c2ccccc2)CC1=O (stereo partly drawn) [Compound 171, 2-(((((S)-1-ethylpyrrolidin-2-yl)methyl)amino)methylene)-5-phenylcyclohexane-1,3-dione] | 3 to 15
O=C1CC(c2ccccc2Br)CC(=O)C1=CO (centres unmarked) [Compound 422, 2-(hydroxymethylene)-5-(2-bromophenyl)cyclo-hexane-1,3-dione] | < 3
O=C1CC(c2cnc(N3CCOCC3)nc2)CC(=O)C1=CNCCN1CCN(CCO)CC1 (centres unmarked) [Compound 91, 2-(((2-(4-(2-hydroxyethyl)piperazin-1-yl)ethyl)amino)methylene)-5-(2-morpholino-pyrimidin-5-yl)cyclohexane-1,3-dione] | 15 to 100
O=C1CC(c2cnc3ccccc3n2)CC(=O)C1=CNCCN1CCN(CCO)CC1 (centres unmarked) [Compound 88, 2-(((2-(4-(2-hydroxyethyl)piperazin-1-yl)ethyl)amino)methylene)-5-(quinoxalin-2-yl)cyclohexane-1,3-dione] | 3 to 15
O=C1Nc2ccc(Cl)cc2C(=O)/C1=C/NCCN1CCN(CCO)CC1 [Compound 192, 6-chloro-3-(((2-(4-(2-hydroxyethyl)piperazin-1-yl)ethyl)amino)methylene) quinoline-2,4 (1H,3H)-dione] | 3 to 15
O=C1CC(c2ccc(C(=O)O)cc2)CC(=O)C1=CNCCN1CCOCC1 (centres unmarked) [Compound 260, 4-(4-(((2-morpholinoethyl)amino)methylene)-3,5-dioxocyclohexyl) benzoic acid] | < 3
CS(=O)(=O)CCNC=C1C(=O)CC(c2ccccc2)CC1=O (centres unmarked) [Compound 208, 2-(((2-(methylsulfonyl)ethyl)amino)methylene)-5-phenylcyclohexane-1,3-dione] | 15 to 100
COc1ccc(CN2CC(=O)C(=CNCCN3CCN(CCO)CC3)C(=O)C2)cc1 [Compound 102, 4-(((2-(4-(2-hydroxyethyl)piperazin-1-yl)ethyl)amino)methylene)-1-(4-methoxybenzyl)piperidine-3,5-dione] | 15 to 100
NC=C1C(=O)CC(c2ccccc2)CC1=O (centres unmarked) [Compound 2, 2-(aminomethylene)-5-phenylcyclohexane-1,3-dione] | 3 to 15
COCCNC=C1C(=O)CC(c2ccccc2)CC1=O (centres unmarked) [Compound 128, 2-(((2-methoxyethyl)amino)methylene)-5-phenylcyclohexane-1,3-dione] | 100 to 1000
Cc1ccc2c(C3CC(=O)C(=CN(C)C)C(=O)C3)c[nH]c2c1 (centres unmarked) [Compound 293, 2-((dimethylamino)methylene)-5-(6-methyl-1H-indol-3-yl)cyclohexane-1,3-dione] | 3 to 15
O=C1CC(c2ccccc2)CC(=O)C1=CNC(=O)c1ccccn1 (centres unmarked) [Compound 307, N-((2,6-dioxo-4-phenylcyclo-hexylidene)methyl) picolinamide] | 3 to 15
O=C1CC2c3ccccc3CCC2C(=O)/C1=C\NCCN1CCN(CCO)CC1 (centres unmarked) [Compound 113, 2-(((2-(4-(2-hydroxyethyl)piperazin-1-yl)ethyl)amino)methylene)-4a,9,10,10a-tetrahydrophenanthrene-1,3(2H,4H)-dione] | 100 to 1000
O=C1CC(c2c[nH]c3ccccc23)CC(=O)C1=CNCCN1CCN(CCO)CC1 (centres unmarked) [Compound 39, 2-(((2-(4-(2-hydroxyethyl)piperazin-1-yl)ethyl)amino)methylene)-5-(1H-indol-3-yl) cyclohexane-1,3-dione] | < 3

Compound | IC50 [µM]
Cc1ccc(C2CC(=O)C(=CNCCN3CCN(C(=O)N4CCOCC4)CC3)C(=O)C2)cc1 (centres unmarked) [Compound 226, 2-(((2-(4-(morpholine-4-carbonyl)piperazin-1-yl)ethyl)amino)methylene)-5-(p-tolyl) cyclohexane-1,3-dione] | < 3
O=C1Oc2ccccc2C(=O)C1=CNCCN1CCN(CCO)CC1 [Compound 155, 3-(((2-(4-(2-hydroxyethyl)piperazin-1-yl)ethyl)amino)methylene) chromanone-2,4-dione] | 15 to 100
O=C1CC(c2ccccc2C(F)(F)F)CC(=O)C1=CNCCN1CCN(CCO)CC1 (centres unmarked) [Compound 320, 2-(((2-(4-(2-hydroxyethyl)piperazin-1-yl)ethyl)amino)methylene)-5-(2-(trifluoromethyl)phenyl) cyclohexane-1,3-dione] | < 3
CN(C)C=C1C(=O)CC(c2cccc(C(=O)NCCCCc3ccccc3)c2)CC1=O (centres unmarked) [Compound 269, 3-(4-((dimethylamino)methylene)-3,5-dioxocyclohexyl)-N-(4-phenylbutyl)-benzamide] | 3 to 15
O=C1CC(c2ccccc2)CC(=O)C1=CNCCN1CCN(C(=O)c2ccc(Cl)cc2)CC1 (centres unmarked) [Compound 219, 2-(((2-(4-(4-chlorobenzoyl)piperazin-1-yl)ethyl)amino)methylene)-5-phenylcyclohexane-1,3-dione] | < 3
CCCNC(=O)C1CC(=O)C(=CN(C)C)C(=O)C1 (centres unmarked) [Compound 274, 4-((dimethylamino)methylene)-3,5-dioxo-N-propylcyclohexane-1-carboxamide] | 15 to 100
CNc1cccc(C2CC(=O)C(=CNCCN3CCN(CCO)CC3)C(=O)C2)c1Br (centres unmarked) [Compound 374, 5-(2-bromo-3-(methylamino)phenyl)-2-(((2-(4-(2-hydroxyethyl)piperazin-1-yl)ethyl)amino)methylene) cyclohexane-1,3-dione] | < 3
CN(C)CCNC=C1C(=O)CC(c2c(F)c(F)c(F)c(F)c2F)CC1=O (centres unmarked) [Compound 412, 2-(((2-(dimethylamino)ethyl)amino)methylene)-5-(perfluorophenyl) cyclohexane-1,3-dione] | < 3
COc1cccc2c1NC(=O)/C(=C\NCCN1CCN(CCO)CC1)C2=O [Compound 194, 3-(((2-(4-(2-hydroxyethyl)piperazin-1-yl)ethyl)amino)methylene)-8-methoxyquinoline-2,4(1H,3H)-dione] | 15 to 100
O=C1CC(c2ccccc2)CC(=O)C1=CNCCN1CCN(C(=O)c2cccnc2)CC1 (centres unmarked) [Compound 222, 2-(((2-(4-nicotinoylpiperazin-1-yl)ethyl)amino)methylene)-5-phenylcyclohexane-1,3-dione] | < 3
O=C1CC(c2ccccc2)CC(=O)C1=CNCCOCCO (centres unmarked) [Compound 134, 2-(((2-(2-hydroxyethoxy)ethyl)amino)methylene)-5-phenylcyclohexane-1,3-dione] | 100 to 1000
CC(c1ccccc1)C1CC(=O)C(=CNCCN2CCN(CCO)CC2)C(=O)C1 (centres unmarked) [Compound 69, 2-(((2-(4-(2-hydroxyethyl)piperazin-1-yl)ethyl)amino)methylene)-5-(1-phenylethyl) cyclohexane-1,3-dione] | 15 to 100
CN(C)C=C1C(=O)CC(c2cccc(C(F)(F)F)c2)CC1=O (centres unmarked) [Compound 255, 2-((dimethylamino)methylene)-5-(3-(trifluoromethyl)phenyl) cyclohexane-1,3-dione] | < 3
O=C1CC(c2ccc([N+](=O)[O-])cc2)CC(=O)C1=CO (centres unmarked) [Compound 436, 2-(hydroxymethylene)-5-(4-nitrophenyl)cyclo-hexane-1,3-dione] | 3 to 15
CN(C)C=C1C(=O)CC(c2cncc3ccccc23)CC1=O (centres unmarked) [Compound 287, 2-((dimethylamino)methylene)-5-(isoquinolin-4-yl)cyclohexane-1,3-dione] | 3 to 15
Cn1nnc(-c2ccc(C3CC(=O)C(=CNCCN4CCN(CCO)CC4)C(=O)C3)cc2)n1 (centres unmarked) [Compound 22, 2-(((2-(4-(2-hydroxyethyl)piperazin-1-yl)ethyl)amino)methylene)-5-(4-(2-methyl-2H-tetrazol-5-yl)phenyl) cyclohexane-1,3-dione] | 100 to 1000
O=C1CC(c2ccccc2)CC(=O)C1=CNC1CCCNC1 (centres unmarked) [Compound 141, 5-phenyl-2-((piperidin-3-ylamino)methylene) cyclohexane-1,3-dione hydrochloride] | 3 to 15
CN(C)CCNC=C1C(=O)CC(c2c(Cl)cccc2C(F)(F)F)CC1=O (centres unmarked) [Compound 358, 5-(2-chloro-6-(trifluoromethyl)phenyl)-2-(((2-(dimethylamino)ethyl)amino)methylene) cyclohexane-1,3-dione] | < 3
O=C1CC(c2ccccc2)CC(=O)C1=CNCCN1CCN(C(=O)c2ccccc2)CC1 (centres unmarked) [Compound 216, 2-(((2-(4-benzoylpiperazin-1-yl)ethyl)amino)methylene)-5-phenylcyclohexane-1,3-dione] | < 3
O=C1CC(c2cccc(F)c2)CC(=O)C1=CO (centres unmarked) [Compound 446, 2-(hydroxymethylene)-5-(3-fluorophenyl)cyclo-hexane-1,3-dione] | 3 to 15
